Values quoted from earlier work in patent US6858612B1, “Use of tetrahydropteridine derivatives as no synthase inhibitors” (Vasopharm Buitech GmbH, priority 1994, dated 2005).

Test system: NO synthases

SMILES	effect on NO synthase activity (Hevel and Marletta, Giovanelli et al. only at relatively high concentrations)	effect on NO production (literature reports (Kwon et al., Giovanelli et al., Overfeld et al.), concentration-dependent)
CC1CNc2nc(N)[nH]c(=O)c2N1 (centres unmarked) [6-methyl-5,6,7,8-tetrahydropterin]	increase in NO synthase activity	–
C[C@H](O)[C@H](O)C1=Nc2c(nc(N)[nH]c2=O)NC1 [7,8-dihydrobiopterin]	–	Stimulation of NO production
